Molecular target: T1, human and rat GPR-14 (UniProt Q9UKP6)
T1 sequence (Q9UKP6 1-389): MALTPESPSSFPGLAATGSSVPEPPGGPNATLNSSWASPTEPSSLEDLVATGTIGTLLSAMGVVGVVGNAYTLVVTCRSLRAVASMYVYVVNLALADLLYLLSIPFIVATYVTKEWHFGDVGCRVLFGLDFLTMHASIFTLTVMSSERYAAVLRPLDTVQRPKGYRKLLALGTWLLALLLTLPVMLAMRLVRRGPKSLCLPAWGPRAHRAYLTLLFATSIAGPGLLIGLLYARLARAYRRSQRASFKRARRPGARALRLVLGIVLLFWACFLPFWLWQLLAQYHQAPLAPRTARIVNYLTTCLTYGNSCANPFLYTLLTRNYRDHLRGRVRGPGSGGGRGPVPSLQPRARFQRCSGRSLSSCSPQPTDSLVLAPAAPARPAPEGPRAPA
Assay: Radioligand binding, [125I] h-U-II, HEK-293 cell membranes
Settings: radioligand binding assay; HEK-293 cell membranes with stable cloned GPR-14; 200 pM [125I] h-U-II
Method: HEK-293 cell membranes containing stable cloned human and rat GPR-14 (20 ug/assay) were incubated with 200 pM [125I] h-U-II (200 Ci/mmol^−1 in the presence of increasing concentrations of test compounds in DMSO (0.1 nM to 10 uM), in a final incubation volume of 200 ul (20 mM Tris-HCl, 5 mM MgCl2). Incubation was done for 30 minutes at room temperature followed by filtration GF/B filters with Brandel cell harvester. ^125I labeled U-II binding was quantitated by gamma counting. Nonspecific binding was defined by ^125I U-II binding in the presence of 100 nM of unlabeled human U-II. Analysis of the data was performed by nonlinear least square fitting.

Ki: 90 nM
Compound: COc1cc(NCCCNC(=O)C(c2ccccc2)c2ccccc2)nc2ccccc12 [Example 29, N-[3-(4-Methoxy-quinolin-2-ylamino)-propyl]-2,2-diphenyl-acetamide]
